Laboratory results from PubChem BioAssay (NCI).
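Tested at 5 concentrations; 48 h exposure; 96-well plates; endpoints linearly interpolated, else capped at highest concentration. Here, GI50 denotes the concentration required for 50% inhibition of growth. TGI denotes the concentration required for complete inhibition of growth.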

Key:
Assay in all cases: growth of human tumour cells (NCI), 48 h
OVCAR-5 ovarian = test system: OVCAR-5 ovarian
UO-31 renal = test system: UO-31 renal
A549 NSCLC = test system: A549 NSCLC
U251 CNS = test system: U251 CNS
PC-3 prostate = test system: PC-3 prostate
MDA-MB-231 breast = test system: MDA-MB-231 breast
NCI-H522 lung = test system: NCI-H522 lung
DU-145 prostate = test system: DU-145 prostate
CCRF-CEM leukemia = test system: CCRF-CEM leukemia
A498 renal = test system: A498 renal
SF-539 CNS = test system: SF-539 CNS
UACC-62 melanoma = test system: UACC-62 melanoma
HS 578T breast = test system: HS 578T breast
HCT-116 colon = test system: HCT-116 colon
SNB-19 CNS = test system: SNB-19 CNS
IGROV1 ovarian = test system: IGROV1 ovarian
NCI-H460 lung = test system: NCI-H460 lung
786-0 renal = test system: 786-0 renal
UACC-257 melanoma = test system: UACC-257 melanoma
HOP-92 NSCLC = test system: HOP-92 NSCLC
HL-60(TB) leukemia = test system: HL-60(TB) leukemia
SNB-75 CNS = test system: SNB-75 CNS
SK-OV-3 ovarian = test system: SK-OV-3 ovarian
NCI/ADR-RES ovarian = test system: NCI/ADR-RES ovarian
OVCAR-4 ovarian = test system: OVCAR-4 ovarian
SR leukemia = test system: SR leukemia
OVCAR-3 ovarian = test system: OVCAR-3 ovarian
COLO 205 colon = test system: COLO 205 colon
HCT-15 colon = test system: HCT-15 colon
HT29 colon = test system: HT29 colon
KM12 colon = test system: KM12 colon
T-47D breast = test system: T-47D breast
NCI-H226 lung = test system: NCI-H226 lung
HOP-62 NSCLC = test system: HOP-62 NSCLC
ACHN renal = test system: ACHN renal
MCF7 breast = test system: MCF7 breast
LOX IMVI melanoma = test system: LOX IMVI melanoma
MALME-3M melanoma = test system: MALME-3M melanoma
SF-295 CNS = test system: SF-295 CNS
SK-MEL-5 melanoma = test system: SK-MEL-5 melanoma
MDA-N = test system: MDA-N
MOLT-4 leukemia = test system: MOLT-4 leukemia
CAKI-1 renal = test system: CAKI-1 renal
NCI-H23 lung = test system: NCI-H23 lung
K-562 leukemia = test system: K-562 leukemia
MDA-MB-435 = test system: MDA-MB-435
SK-MEL-28 melanoma = test system: SK-MEL-28 melanoma
SF-268 CNS = test system: SF-268 CNS
SN12C renal = test system: SN12C renal
RPMI-8226 leukemia = test system: RPMI-8226 leukemia
HCC-2998 colon = test system: HCC-2998 colon
OVCAR-8 ovarian = test system: OVCAR-8 ovarian
TK-10 renal = test system: TK-10 renal
EKVX NSCLC = test system: EKVX NSCLC
BT-549 breast = test system: BT-549 breast
M14 melanoma = test system: M14 melanoma
SW-620 colon = test system: SW-620 colon
SK-MEL-2 melanoma = test system: SK-MEL-2 melanoma

Cc1ccc2c(=O)cc(-c3ccc4ccccc4c3)[nH]c2n1
TGI (OVCAR-5 ovarian): > 100 µM
TGI (UO-31 renal): > 100 µM
TGI (A549 NSCLC): > 100 µM
GI50 (U251 CNS): 4.57 µM
TGI (U251 CNS): > 100 µM
GI50 (PC-3 prostate): 2.62 µM
TGI (PC-3 prostate): 9.61 µM
TGI (MDA-MB-231 breast): > 100 µM
TGI (NCI-H522 lung): 20.5 µM
TGI (DU-145 prostate): > 100 µM
TGI (CCRF-CEM leukemia): 14.6 µM
TGI (A498 renal): 15.5 µM
TGI (SF-539 CNS): 54.1 µM
TGI (UACC-62 melanoma): 24.1 µM
TGI (HS 578T breast): 20 µM
GI50 (HCT-116 colon): 4 µM
TGI (HCT-116 colon): 87.9 µM
TGI (SNB-19 CNS): > 100 µM
TGI (IGROV1 ovarian): 82.7 µM
GI50 (NCI-H460 lung): 3.82 µM
TGI (NCI-H460 lung): > 100 µM
TGI (786-0 renal): > 100 µM
TGI (UACC-257 melanoma): > 100 µM
TGI (HOP-92 NSCLC): 7.7 µM
TGI (HL-60(TB) leukemia): 4.18 µM
TGI (SNB-75 CNS): 14.6 µM
TGI (SK-OV-3 ovarian): > 100 µM
TGI (NCI/ADR-RES ovarian): 48.5 µM
TGI (OVCAR-4 ovarian): 93.2 µM
TGI (SR leukemia): 5.59 µM
GI50 (OVCAR-3 ovarian): 3.59 µM
TGI (OVCAR-3 ovarian): > 100 µM
TGI (COLO 205 colon): 5.55 µM
TGI (HCT-15 colon): > 100 µM
TGI (HT29 colon): > 100 µM
TGI (KM12 colon): 65.4 µM
TGI (T-47D breast): > 100 µM
TGI (NCI-H226 lung): 98.4 µM
TGI (HOP-62 NSCLC): > 100 µM
TGI (ACHN renal): > 100 µM
TGI (MCF7 breast): 37.9 µM
TGI (LOX IMVI melanoma): 39.6 µM
TGI (MALME-3M melanoma): > 100 µM
GI50 (SF-295 CNS): 3.8 µM
TGI (SF-295 CNS): 39.6 µM
GI50 (SK-MEL-5 melanoma): 3.3 µM
TGI (SK-MEL-5 melanoma): 12.7 µM
GI50 (MDA-N): 1.94 µM
TGI (MDA-N): 4.69 µM
TGI (MOLT-4 leukemia): 29.1 µM
GI50 (CAKI-1 renal): 5.41 µM
TGI (CAKI-1 renal): > 100 µM
TGI (NCI-H23 lung): 28.7 µM
TGI (K-562 leukemia): 13 µM
GI50 (MDA-MB-435): 1.57 µM
TGI (MDA-MB-435): 4.16 µM
TGI (SK-MEL-28 melanoma): > 100 µM
TGI (SF-268 CNS): > 100 µM
TGI (SN12C renal): > 100 µM
TGI (RPMI-8226 leukemia): 19.5 µM
TGI (HCC-2998 colon): 68.6 µM
TGI (OVCAR-8 ovarian): > 100 µM
TGI (TK-10 renal): > 100 µM
TGI (EKVX NSCLC): > 100 µM
TGI (BT-549 breast): > 100 µM
TGI (M14 melanoma): > 100 µM
TGI (SW-620 colon): > 100 µM
TGI (SK-MEL-2 melanoma): > 100 µM
